Experimental data as given in PMC12040169 (PLOS Biology, 2025).

Assay: in vitro
Settings: human, hela cells, % viability

Compared with `CC(=O)NS(=O)(=O)c1ccc(NC(=O)/C=C/c2cccc([N+](=O)[O-])c2)cc1` [CBK300492], `Cc1cc(=O)oc2cc(OCC(=O)Nc3ccc(S(=O)(=O)O)cc3)ccc12` [CBK301204N] is higher in viability at 28.5 h, 10 µM: 88.6% for the first, 89.6% for the second.

Going from `Cc1nc(NC(=O)c2c(F)cccc2F)sc1C` [CBK300495] to `COCCn1c(SCc2cn3c(C)cccc3n2)nc(C)c1C` [CBK304050], the viability at 28.5 h, 10 µM rises from 76.1% to 83.9%.

First: COc1cc(CNc2nnn[nH]2)cc(Br)c1OCc1ccc(Cl)cc1 [CBK300496]
Second: O=c1[nH]nc2cc(SCc3ccc(Cl)cc3)ncn12 [CBK300540]
The viability at 28.5 h, 10 µM of the first is lower: 87.2% for the first, 107% for the second.

Compared with `O=C(O)c1cc(-c2ccc(-c3ccc(Cl)c(C(F)(F)F)c3)o2)nc2ccc(F)cc12` [CBK300501], `O=C(CCc1ccc(-c2ccc(F)cc2)o1)Nc1ccc(C(=O)O)cc1` [CBK300502] is lower in viability at 28.5 h, 10 µM: 111% for the first, 99% for the second.

Compared with `O=C(O)CCSCC(=O)c1ccc(NS(=O)(=O)c2ccccc2)cc1` [CBK300504], `O=C(CSc1ncnc2[nH]ncc12)c1ccc(-c2ccccc2)cc1` [CBK300519] is lower in viability at 28.5 h, 10 µM: 97.5% for the first, 88.4% for the second.

Going from `CCOc1cccc2cc(-c3cc(=O)oc4cc(C)c(O)cc34)oc12` [CBK300517] to `COc1ccc(S(=O)(=O)Nc2ccc3oc(-c4ccccc4F)cc(=O)c3c2)cc1` [CBK300518], the viability at 28.5 h, 10 µM falls from 95.9% to 90.1%.

Going from `Cc1ccc(C(=O)CSc2nc(O)c3nc[nH]c3n2)cc1` [CBK300520] to `Cc1c(C(=O)O)sc2nc(SC/C=C/c3ccccc3)nc(N)c12` [CBK300523], the viability at 28.5 h, 10 µM falls from 119% to 83.4%.

Compared with `COCCNC(=O)c1nnn(-c2ccc(Br)cc2)c1C` [CBK300524], `Cc1c(C(=O)Nc2ccc(C(=O)O)cc2)nnn1-c1ccc(Cl)cc1` [CBK300532] is lower in viability at 28.5 h, 10 µM: 93.3% for the first, 84.4% for the second.

First: COc1ccc(OCc2nc(C)cc(=O)n2CC(=O)NC(C)C)cc1 [CBK300525]
Second: CCOc1ccc(CC(=O)Nc2ncccc2OCCCC#N)cc1 [CBK304062]
The viability at 28.5 h, 10 µM of the first is higher: 99% for the first, 90.3% for the second.

First: Cc1ccccc1OCC(=O)N1CC(=O)Nc2ccccc21 [CBK300535]
Second: COCC(=O)N1CCN(Cc2cccc(-c3ccccn3)c2)CC1 [CBK304035]
The viability at 28.5 h, 10 µM of the first is higher: 94% for the first, 91.3% for the second.

First: O=C(c1ccccc1)c1ccc2n1CCC2C(=O)N1CCN(c2ccccc2)CC1 (stereo not shown) [CBK300536]
Second: CC(=O)Nc1cccc(C(=O)N2CCN(Cc3ccccn3)CC2)c1 [CBK304067]
The viability at 28.5 h, 10 µM of the first is higher: 115% for the first, 86.3% for the second.

Compared with `O=c1[nH]c(SCc2n[nH]c(=S)n2-c2ccccc2)nc2sc3c(c12)CCCC3` [CBK300538], `Nc1nc(SCc2nnc(S)n2-c2ccccc2)nc2sc3c(c12)CCC3` [CBK301216K] is lower in viability at 28.5 h, 10 µM: 118% for the first, 83.1% for the second.

Compared with `CCCCc1ccc(S(=O)(=O)c2cnc(SCC(=O)Nc3ccc(Cl)cc3)[nH]c2=O)cc1` [CBK300539], `O=C(NCc1cccnc1)c1ccc(CSc2ccccc2)cc1` [CBK300544] is lower in viability at 28.5 h, 10 µM: 106% for the first, 101% for the second.

Going from `CC(C)[C@H]1N=C2C=C(C(C)(C)C)ON2[C@H]2[C@H](O)[C@H](O)C[C@H]21` [CBK303234] to `CC(C)(C)C1=CC2=NC3(CCCCC3)[C@@H]3C[C@@H](O)[C@@H](O)[C@@H]3N2O1` [CBK303235], the viability at 28.5 h, 10 µM rises from 90.1% to 111%.

Going from `Cn1c2c(c(=O)n(C)c1=O)[C@H]1[C@H](O)[C@H](O)C[C@H]1[C@@H](C(O)c1ccccc1)N2` (stereo partly shown) [CBK303236] to `Cn1c2c(c(=O)n(C)c1=O)[C@@H]1C(C[C@](O)(CO)[C@H]1O)C1(CCC1)N2` (stereo partly shown) [CBK303264], the viability at 28.5 h, 10 µM rises from 92.8% to 118%.

Going from `Cn1c(/N=C(\C=N\c2cc(=O)n(C)c(=O)n2C)c2ccccc2)cc(=O)n(C)c1=O` [CBK303237] to `Cc1ccc(C#N)cc1S(=O)(=O)NC1CC(=O)c2ccccc21` (stereo not shown) [CBK304030], the viability at 28.5 h, 10 µM rises from 87.3% to 117%.

Going from `CC(C)(C)OC(=O)N1CC2(C1)N=C1C=C(C(C)(C)C)ON1[C@H]1[C@H](O)[C@H](O)C[C@H]12` [CBK303240] to `CC(C)(C)C1=CC2=NC3(CCCCCC3)[C@@H]3C[C@@H](O)[C@@H](O)[C@@H]3N2O1` [CBK303252], the viability at 28.5 h, 10 µM falls from 97.6% to 91.9%.

Going from `CCOC(=O)c1nc2c(n1C)[C@H]1[C@H](O)[C@H](O)C[C@H]1C1(CCC1)N2` [CBK303241] to `Nc1nc(O)c2c(n1)NC1(CCC1)[C@@H]1C[C@@H](O)[C@@H](O)[C@H]21` [CBK303248], the viability at 28.5 h, 10 µM rises from 107% to 118%.

First: CC(=O)[C@H]1CC[C@H]2[C@@H]3CC[C@H]4CC5(CC[C@]4(C)[C@H]3CC[C@]12C)N=C1C=C(C(C)(C)C)ON1C1C=CCC15 (stereo partly shown) [CBK303246]
Second: CC(C)(C)C1=CC2=NC3(CCCCCCC3)[C@@H]3C[C@@H](O)[C@@H](O)[C@@H]3N2O1 [CBK303256]
The viability at 28.5 h, 10 µM of the first is lower: 42.9% for the first, 113% for the second.

Compared with `COC(=O)c1csc2c1N[C@H](C1CC3C=CC1C3)[C@@H]1CCO[C@H]21` (stereo partly shown) [CBK303251], `COC(=O)c1csc2c1NC1(CCC1)[C@@H]1C[C@@H](O)[C@@H](O)[C@H]21` [CBK303255] is higher in viability at 28.5 h, 10 µM: 94.9% for the first, 119% for the second.

Going from `Cc1c2c(n(-c3ccccc3)[n+]1[O-])NC1(CCC1)[C@@H]1C[C@@H](O)[C@@H](O)[C@H]21` [CBK303253] to `CC(C)(C)C1=CC2=NC3(CCC3)C3C[C@](O)(Cc4ccccc4)[C@@H](O)[C@@H]3N2O1` (stereo partly shown) [CBK303261], the viability at 28.5 h, 10 µM rises from 91.5% to 95.7%.

First: CC(C)(C)C1=CC2=NC3(CCCCCCCCCCC3)[C@@H]3C[C@@H](O)[C@@H](O)[C@@H]3N2O1 [CBK303254]
Second: CC1=CC2=NC3(CCC3)[C@@H]3C[C@@H](O)[C@@H](O)[C@@H]3N2O1 [CBK303257]
The viability at 28.5 h, 10 µM of the first is higher: 113% for the first, 92% for the second.

Going from `CC(C)(C)C1=CC2=NC3(CCC3)C3C[C@](O)(COCc4ccccc4)[C@@H](O)[C@@H]3N2O1` (stereo partly shown) [CBK303259] to `CC(C)(C)C1=CC2=NC3(CCC3)C3C[C@@H](O)[C@@H](O)[C@]3(COCc3ccccc3)N2O1` (stereo partly shown) [CBK303260], the viability at 28.5 h, 10 µM falls from 102% to 99.6%.

Compared with `CC(C)(C)C1=CC2=NC3(CCC3)C3C[C@](O)(CO)[C@@H](O)[C@@H]3N2O1` (stereo partly shown) [CBK303262], `CCN1CC(C(=O)N2CC(O)CC2c2cc(F)ccc2F)CC1=O` (stereo not shown) [CBK304031] is higher in viability at 28.5 h, 10 µM: 91.1% for the first, 103% for the second.

Going from `CCC(=O)N1CCC(NCc2ccc(OCC(N)=O)cc2)C(C)C1` (stereo not shown) [CBK303989] to `Cc1ccc(CC2CCCN2CC(=O)NCc2ccccn2)cc1` (stereo not shown) [CBK304070], the viability at 28.5 h, 10 µM rises from 77.6% to 96.6%.

Compared with `CC(C)(C)SCCOC(=O)C1CC(=O)N(Cc2ccccn2)C1` (stereo not shown) [CBK303991], `Cc1cccc(CCNC(=O)N2CCN(Cc3ccccn3)CC2)c1` [CBK304057] is higher in viability at 28.5 h, 10 µM: 90.8% for the first, 103% for the second.

First: CCC1c2ccsc2CCN1CC(O)COCc1ccco1 (stereo not shown) [CBK303992]
Second: CCCCc1noc(CN2CCCC2C(=O)NCc2ccco2)n1 (stereo not shown) [CBK304036]
The viability at 28.5 h, 10 µM of the first is higher: 97.3% for the first, 88% for the second.

First: COc1ccc2[nH]cc(C3CCN(Cc4cc(C)no4)CC3)c2c1 [CBK303996]
Second: CCN1CCC2CCC(C1)N2Cc1ccc(Oc2cnccn2)cc1 (stereo not shown) [CBK304034]
The viability at 28.5 h, 10 µM of the first is lower: 91.5% for the first, 95.7% for the second.

Going from `Cn1ccnc1CN1CCCN(C(=O)c2cccc(C#N)c2)CC1` [CBK303998] to `N#Cc1ccc(CN2CCCN(C(=O)c3cccc(F)c3)CC2)cc1` [CBK304010], the viability at 28.5 h, 10 µM rises from 85.2% to 96.2%.

Compared with `Cc1nc(C)n(CC2CN(Cc3cn4ccccc4n3)CCO2)n1` (stereo not shown) [CBK303999], `Cc1nc(C)n(CC2CCCCN2Cc2cn3ccccc3n2)n1` (stereo not shown) [CBK304008] is higher in viability at 28.5 h, 10 µM: 97.1% for the first, 111% for the second.

First: Cc1nc(CCNCc2c(C(C)C)nn(C)c2N(C)C)cs1 [CBK304002]
Second: Cc1nc(C)c(C(C)NCc2c(C(C)C)nn(C)c2N(C)C)s1 (stereo not shown) [CBK304005]
The viability at 28.5 h, 10 µM of the first is higher: 98.8% for the first, 74.3% for the second.

Going from `Clc1ccc(CN2CCC(NCCCn3cccn3)CC2)cc1` [CBK304004] to `c1cnn(C2CCCN(Cc3ccc(Oc4cnccn4)cc3)C2)c1` (stereo not shown) [CBK304043], the viability at 28.5 h, 10 µM rises from 84.2% to 96.9%.

First: CC(=O)Nc1cccc(CN(CCCO)C2CCc3ccccc32)c1 (stereo not shown) [CBK304011]
Second: O=C(Nc1cccc(F)c1)N(Cc1cccnc1)CC1CCCO1 (stereo not shown) [CBK304065]
The viability at 28.5 h, 10 µM of the first is lower: 95% for the first, 109% for the second.

First: c1ccc(C(NCc2cnc(-c3cnccn3)s2)C2CCC2)cc1 (stereo not shown) [CBK304016]
Second: N#Cc1ccc(NCc2ccccc2CN2CCCC2CO)nc1 (stereo not shown) [CBK304055]
The viability at 28.5 h, 10 µM of the first is higher: 106% for the first, 95.8% for the second.

Compared with `CC1CN(c2cc(CNCc3cnn4ccccc34)ccn2)CCO1` (stereo not shown) [CBK304018], `Cc1c(CNCCN2CCN(C)CC2c2ccccc2)cnn1C` (stereo not shown) [CBK304056] is higher in viability at 28.5 h, 10 µM: 84.1% for the first, 98.8% for the second.

Compared with `O=C1OCCN1CCN1CCCN(Cc2ccc(F)cc2)CC1` [CBK304023], `CCOC(=O)c1cnn(C2CCCN(Cc3cccc(O)c3)C2)c1` (stereo not shown) [CBK304046] is lower in viability at 28.5 h, 10 µM: 103% for the first, 100% for the second.

Going from `CNS(=O)(=O)c1ccc(C)c(C(=O)N(C)Cc2cnn(C)c2)c1` [CBK304026] to `CCONC(=O)c1cc(-c2ccccc2C)nc2c1cnn2C(C)C` [CBK304048], the viability at 28.5 h, 10 µM rises from 89.1% to 95.5%.

Compared with `Cc1cccn2cc(CCNC(=O)CN(C)C3CCSC3)nc12` (stereo not shown) [CBK304027], `COCn1nccc1S(=O)(=O)NCCc1cn2ccccc2n1` [CBK304060] is lower in viability at 28.5 h, 10 µM: 84.6% for the first, 80.6% for the second.

First: Cc1nc(C)n(CC2CCCN(c3ncnc4ccsc34)C2)n1 (stereo not shown) [CBK304037]
Second: Cc1nc(CCNCc2c(C)nn(C)c2N2CCOCC2)cs1 [CBK304054]
The viability at 28.5 h, 10 µM of the first is lower: 71.8% for the first, 101% for the second.

First: Cc1ccc(C)c2c1CCCC2N1CCC(NS(C)(=O)=O)CC1 (stereo not shown) [CBK304038]
Second: CCOC(=O)c1cnn(C2CCCN(Cc3c(C)n[nH]c3C)C2)c1 (stereo not shown) [CBK304059]
The viability at 28.5 h, 10 µM of the first is higher: 103% for the first, 88.6% for the second.

Going from `CCN(C(C)COC)S(=O)(=O)c1ccc(C(F)(F)F)nc1` (stereo not shown) [CBK304042] to `Cc1c(C(=O)N2CCC[C@@H]2CO)nnn1Cc1ccc(F)cc1F` [CBK304071], the viability at 28.5 h, 10 µM rises from 88.8% to 89.2%.

Compared with `CCOC(=O)c1cnn(C2CCCN(Cc3ccc(C#N)o3)C2)c1` (stereo not shown) [CBK304045], `Cc1cccc(N2CCN(C(=O)CCc3ccsc3)C(C)C2)n1` (stereo not shown) [CBK304069] is lower in viability at 28.5 h, 10 µM: 116% for the first, 96.6% for the second.

For `Cc1cc(N2CCN(C(=O)c3ccsc3)CC2)nc(C(C)C)n1` [CBK304053], the viability at 28.5 h, 10 µM was 102%.
